According to US8211445B2, “PSM peptides as vaccine targets against methicillin-resistant Staphylococcus” (The United States of America, as represented by the …, priority 2007, dated 2012):

System: human neutrophils
Experiment: Lysis of human neutrophils (release of lactate dehydrogenase)
Format: cell-based
Details: synthetic PSM peptides at 10 μg/ml, LDH release (FIG. 4A)
Method: (§1) Lysis of PMNs by synthetic PSMs or clarified S. aureus culture media was determined essentially as described (Voyich et al., J Infect Dis 194, 1761-70, 2006; Voyich et al., J Immunol 175, 3907-19, 2005). Synthetic PSMs (1 or 10 μg/ml) were added to wells of a 96-well tissue culture plate containing 10^6 PMNs and plates were incubated at 37° C. for up to 3 hours. At the desired times, PMN lysis was determined by release of lactate dehydrogenase (LDH; Cytotoxicity Detection Kit, Roche Applied Sciences). Alternatively, wild-type and isogenic mutant S. aureus strains were cultured for 18 hours at 37° C. in 50 ml TSB with shaking using a 100 ml flask. Bacteria were removed by centrifugation and culture media were sterilized by filtration and stored at −80° C. in aliquots until used. Culture medium was diluted 1:10 in RPMI/H, mixed with human PMNs (10^6) and tested for its ability to cause PMN lysis.
as §1, with “above in Example 2.” for “(Voyich et al., J Infect Dis 194, 1761-70, 2006; Voyich et al., J Immunol 175, 3907-19, 2005).”
Human neutrophil assays: Human neutrophil isolation, chemotaxis, calcium ion flux, priming, lysis assays, and measurement of IL-8 production were performed as described in Example 2.

## fMEFVAKLFKFFKDLLGKFLGNN [PSMα3]
  lysis of human neutrophils in vitro: significant lysis
